Experiment: Metabolic stability and intrinsic clearance in human liver microsomes (MICS)
Format: in vitro ADME
Conditions: human, microsomes, pH 7.4
Protocol: Metabolic Stability and Intrinsic Clearance in Liver Microsomes (MICS)
One objective of this assay is to measure in vitro metabolic stability of a test compound in liver microsomes of one or more different species. The concentration of a control compound in the reaction system is evaluated by LC/MS/MS for calculating intrinsic clearance of a test compound and estimating the stability of the control compound and test compound in liver microsomes of one or more different species.
Microsomes (MICS). Human Liver Microsomes (HLM), Monkey Liver Microsomes (MKLM), Dog Liver Microsomes (DLM), Rat Liver Microsomes (RLM), and Mouse Liver Microsomes (MLM) are obtained at a concentration of 20 mg/mL protein from commercial sources and stored in a −80° C. freezer. Prior to use, liver microsomes are removed from the freezer and allowed to thaw in a 37° C. water bath and then stored on wet ice.
Stock Solutions. Test Compound (TC) Stock Solutions are prepared in DMSO at a concentration of 10 mM and stored for later use. Positive Control (PC) Stock Solutions of verapamil·HCL (FW: 491.1 g/mol) in DMSO are prepared at a concentration of 10 mM (4.91 mg/mL), and stored at the condition same as the stock solutions of test compounds.
Phosphate Buffer. Phosphate Buffer (100 mM, pH 7.4) is prepared by combining a Solution A and a Solution B as follows.
To prepare Solution A, 7.098 g of disodium hydrogen phosphate was combined with 500 mL of pure water and sonicated to dissolve. To prepare the Solution B, 3.400 g of potassium dihydrogen phosphate was combined with 250 mL of pure water and sonicated to dissolve. Solution A was placed on a stirrer and Solution B was slowly added into Solution A until the pH reached 7.4.
NADPH Solution. A 10 mM NADPH Solution is prepared by dissolving NADPH (MW: 833.4 g/mol) at 8.334 mg/mL in phosphate buffer (100 mM, pH 7.4).
Microsome Master Solution. A Microsome Master Solution is prepared by adding 6.25 μL microsomes (20 mg/mL) to 216.25 μL Phosphate Buffer (100 mM). The final concentration is Phosphate Buffer (100 mM); microsomes (0.5 mg/mL).
Dilution of Stock Solutions. The TC Stock Solutions (10 mM in DMSO) and the PC Stock Solutions (10 mM in DMSO) are diluted by adding 3 μL of the TC Stock Solution or the PC Stock Solution to 297 μL of 50% acetonitrile/50% water.
Incubation. Two separated experiments were performed as follows. a) With Cofactors (NADPH): 25 μL of 10 mM NADPH was added to the incubations. The final concentrations of
microsomes and NADPH were 0.5 mg/mL and 1 mM, respectively. b) Without Cofactors (NADPH): 25 μL of 100 mM Phosphate buffer was added to the incubations. The final concentration of microsomes was 0.5 mg/mL. The mixture was pre-warmed at 37° C. for 10 minutes.
The reaction was started with the addition of 2.5 μL of 100 μM PC solution or TC solutions.
Verapamil was used as PC in this study. The final concentration of test compound or control compound was 1 μM. The incubation solution was incubated in water batch at 37° C.
Reaction Termination. Aliquots of 30 μL were taken from the reaction solution at 0.5, 5, 15, 30 and 60 minutes and added to plates. The reaction was stopped by the addition of 5 volumes of cold acetonitrile and a solution containing 100 nM alprazolam, 200 nM caffeine and 100 nM tolbutamide.
Sampling. The plates containing the terminated reactions were centrifuged at 4000 rpm for 30 minutes. Supernatant of each compound (40 μL) was transferred into a 96-well analysis plate.
Four compound samples are pooled together into one cassette and diluted by adding 160 μL of pure water. All incubations are performed in duplicate.
Analysis and Data Processing. Quantitative LC-MS analysis is performed, and peak areas are determined from extracted ion chromatograms. Percent parent remaining was calculated from peak area of TC or PC. The slope value, k, is determined by linear regression of the natural logarithm of percent parent remaining vs. incubation time curve. […]

Microsomal CLint at 1 μM, < 50 µL/min/mg:
Cc1cc([C@@H](C)Oc2ccc(Cl)nc2S(N)(=O)=O)c2oc(-c3ccc4nn(C)cc4n3)c(C)c(=O)c2c1 [Example 5B, 6-Chloro-3-[(1R)-1-[3,6-dimethyl-2-(2-methylpyrazolo[4,3-b]pyridin-5-yl)-4-oxo-chromen-8-yl]ethoxy]pyridine-2-sulfonamide]
Cc1cc([C@@H](C)Oc2ccc(Cl)nc2-c2noc(=O)[nH]2)c2oc(-c3cnn4c3CCC4)c(C)c(=O)c2c1 [Example 102A, 3-[6-Chloro-3-[(1R)-1-[2-(5,6-dihydro-4H-pyrrolo[2,1-e]pyrazol-3-yl)-3,6-dimethyl-4-oxo-chromen-8-yl]ethoxy]-2-pyridyl]-4H-1,2,4-oxadiazol-5-one]
Cc1cc([C@@H](C)Oc2ccc(Cl)nc2C(=O)NOC(C)(C)C)c2oc(-c3ccc4nn(C)cc4c3)c(C)c(=O)c2c1 [Example 27A, N-tert-Butoxy-6-chloro-3-[(1R)-1-[3,6-dimethyl-2-(2-methylindazol-5-yl)-4-oxo-chromen-8-yl]ethoxy]pyridine-2-carboxamide]
Cc1cc([C@@H](C)Oc2ccc(Cl)nc2C(N)=O)c2oc(-c3cncnc3)c(C)c(=O)c2c1 [Example 67A, 6-Chloro-3-[(1R)-1-(3,6-dimethyl-4-oxo-2-pyrimidin-5-yl-chromen-8-yl)ethoxy]pyridine-2-carboxamide]
Cc1cc([C@@H](C)Oc2ccc(Cl)nc2-c2noc(=O)[nH]2)c2oc(C3CC3)c(C)c(=O)c2c1 [Example 64A, 3-[6-Chloro-3-[(1R)-1-(2-cyclopropyl-3,6-dimethyl-4-oxo-chromen-8-yl)ethoxy]-2-pyridyl]-4H-1,2,4-oxadiazol-5-lone]
Cc1cc([C@@H](C)Oc2ccc(Cl)nc2-c2noc(=O)[nH]2)c2oc(-c3ccc4nn(C)cc4c3)c(C)c(=O)c2c1 [Example 18A, 3-[6-Chloro-3-[(1R)-1-[3,6-dimethyl-2-(2-methylindazol-5-yl)-4-oxo-chromen-8-yl]ethoxy]-2-pyridyl]-4H-1,2,4-oxadiazol-5-one]
Cc1cc([C@@H](C)Oc2ccccc2S(N)(=O)=O)c2oc(-c3cnn(C)c3)c(C)c(=O)c2c1 [Example 103C, 2-[(1R)-1-[3,6-Dimethyl-2-(1-methylpyrazol-4-yl)-4-oxo-chromen-8-yl]ethoxy]benzenesulfonamide]
CONC(=O)c1nc(Cl)ccc1O[C@H](C)c1cc(C)cc2c(=O)c(C)c(-c3ccc4nn(CCO)cc4c3)oc12 [Example 135C, 6-Chloro-3-[(1R)-1-[2-[2-(2-hydroxyethyl)indazol-5-yl]-3,6-dimethyl-4-oxo-chromen-8-yl]ethoxy]-N-methoxy-pyridine-2-carboxamide]
Cc1cc([C@@H](C)Oc2ccc(Cl)nc2C(N)=O)c2oc(-c3cnn4cccnc34)c(C)c(=O)c2c1 [Example 16B, 6-Chloro-3-[(1R)-1-(3,6-dimethyl-4-oxo-2-pyrazolo[1,5-a]pyrimidin-3-yl-chromen-8-yl)ethoxy]pyridine-2-carboxamide]
Cc1cc([C@@H](C)Oc2ccc(Cl)nc2-c2noc(=O)[nH]2)c2oc(-c3cnc4c(c3)OCCO4)c(C)c(=O)c2c1 [Example 47A, 3-[6-Chloro-3-[(1R)-1-[2-(2,3-dihydro-[1,4]dioxino[2,3-b]pyridin-7-yl)-3,6-dimethyl-4-oxo-chromen-8-yl]ethoxy]-2-pyridyl]-4H-1,2,4-oxadiazol-5-one]
Cc1cc([C@@H](C)Oc2ccc(Cl)nc2S(N)(=O)=O)c2oc(-c3cccc(C#N)c3)c(C)c(=O)c2c1 [Example 24C, 6-Chloro-3-[(1R)-1-[2-(3-cyanophenyl)-3,6-dimethyl-4-oxo-chromen-8-yl]ethoxy]pyridine-2-sulfonamide]
Cc1cc([C@@H](C)Oc2cccnc2C(=O)NOC(C)(C)C)c2oc(-c3ccc4nn(C)cc4c3)c(C)c(=O)c2c1 [Example 24A, N-tert-Butoxy-3-[(1R)-1-[3,6-dimethyl-2-(2-methylindazol-5-yl)-4-oxo-chromen-8-yl]ethoxy]pyridine-2-carboxamide]
Cc1cc([C@@H](C)Oc2ccc(Cl)nc2C(N)=O)c2oc(-c3cnc4oc(C)nc4c3)c(C)c(=O)c2c1 [Example 130A, 6-Chloro-3-[(1R)-1-[3,6-dimethyl-2-(2-methyloxazolo[5,4-b]pyridin-6-yl)-4-oxo-chromen-8-yl]ethoxy]pyridine-2-carboxamide]
Cc1cc([C@@H](C)Oc2ccc(Cl)nc2C(N)=O)c2oc(-c3cc4cn(C)nc4cc3F)c(C)c(=O)c2c1 [Example 42C, 6-Chloro-3-[(1R)-1-[2-(6-fluoro-2-methyl-indazol-5-yl)-3,6-dimethyl-4-oxo-chromen-8-yl]ethoxy]pyridine-2-carboxamide]
Cc1cc([C@@H](C)Oc2ccc(F)nc2C(N)=O)c2oc(-c3ccc4nn(C)cc4c3)cc(=O)c2c1 [Example 19B, 6-Fluoro-3-[(1R)-1-[6-methyl-2-(2-methylindazol-5-yl)-4-oxo-chromen-8-yl]ethoxy]pyridine-2-carboxamide]
Cc1cc([C@@H](C)Oc2ccc(Cl)nc2S(N)(=O)=O)c2oc(-c3ccc(C#N)cc3)c(C)c(=O)c2c1 [Example 25C, 6-Chloro-3-[(1R)-1-[2-(4-cyanophenyl)-3,6-dimethyl-4-oxo-chromen-8-yl]ethoxy]pyridine-2-sulfonamide]
Cc1cc([C@@H](C)Oc2cccnc2C(N)=O)c2oc(-c3ccc4nn(C)cc4c3)c(C)c(=O)c2c1 [Example 10A, 3-[(1R)-1-[3,6-Dimethyl-2-(2-methylindazol-5-yl)-4-oxo-chromen-8-yl]ethoxy]pyridine-2-carboxamide]

Same assay, conditions: pH 7.4; human liver microsomes 0.5 mg/mL, 1 μM compound; read-out: intrinsic clearance in human MICS

Microsomal CLint at 1 μM, < 50 µL/min/mg:
Cc1cc([C@@H](C)Oc2ccc(Cl)nc2C(=O)NS(C)(=O)=O)c2oc(-c3ccccc3)c(C)c(=O)c2c1 [Example 6, 6-Chloro-3-[(1R)-1-(3,6-dimethyl-4-oxo-2-phenyl-chromen-8-yl)ethoxy]-N-methylsulfonyl-pyridine-2-carboxamide]
Cc1cc([C@@H](C)Oc2cccnc2-c2noc(=O)[nH]2)c2oc(-c3ccccc3)c(C)c(=O)c2c1 [Example 3, 3-[3-[(1R)-1-(3,6-Dimethyl-4-oxo-2-phenyl-chromen-8-yl)ethoxy]-2-pyridyl]-4H-1,2,4-oxadiazol-5-one]

Reference: US20240182460A1, “ALLOSTERIC CHROMENONE INHIBITORS OF PHOSPHOINOSITIDE 3-KINASE (PI3K) FOR THE TREATMENT OF DISEASE” (PETRA PHARMA CORPORATION, priority 2022, published 2024)
